Test results published in ChEMBL document CHEMBL5696442, “Discovery of type II inhibitors of TGFβ-activated kinase 1 (TAK1) and mitogen-activated protein kinase kinase kinase kinase 2 (MAP4K2)” (J Med Chem, 2015).
Active and inactive are the calls of the source. The calls are words filed in the database; no cut-off is given here.

What was measured:
[1] = molecular target: T1, Inhibitor of nuclear factor kappa-B kinase subunit epsilon (Homo sapiens) (UniProt Q14164); assay: Inhibition of IKKe Lys2 labeling site in human Huh-7 cell lysate at 1 uM by KiNativ Profiling analysis relative to control; format: subcellular
T1 sequence (whole entry): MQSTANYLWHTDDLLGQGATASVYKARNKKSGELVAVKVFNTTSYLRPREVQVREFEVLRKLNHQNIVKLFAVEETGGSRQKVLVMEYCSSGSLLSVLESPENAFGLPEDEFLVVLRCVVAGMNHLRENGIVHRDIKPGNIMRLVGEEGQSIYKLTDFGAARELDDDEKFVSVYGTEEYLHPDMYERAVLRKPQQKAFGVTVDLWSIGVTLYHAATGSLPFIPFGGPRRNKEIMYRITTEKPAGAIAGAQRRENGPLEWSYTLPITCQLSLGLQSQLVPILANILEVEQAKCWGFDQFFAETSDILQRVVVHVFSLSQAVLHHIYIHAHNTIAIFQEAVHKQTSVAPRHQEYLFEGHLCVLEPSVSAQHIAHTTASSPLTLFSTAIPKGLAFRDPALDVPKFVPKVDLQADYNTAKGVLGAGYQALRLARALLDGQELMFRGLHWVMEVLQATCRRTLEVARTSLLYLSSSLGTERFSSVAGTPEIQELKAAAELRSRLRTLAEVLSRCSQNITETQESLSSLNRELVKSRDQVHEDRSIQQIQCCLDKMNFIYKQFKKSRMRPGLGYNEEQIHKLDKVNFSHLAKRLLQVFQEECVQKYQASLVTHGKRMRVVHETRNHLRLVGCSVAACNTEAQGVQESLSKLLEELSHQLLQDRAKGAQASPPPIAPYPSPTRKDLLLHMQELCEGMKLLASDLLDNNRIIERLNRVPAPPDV

[2] = molecular target: Serine/threonine-protein kinase PAK 6 (Homo sapiens) (UniProt Q9NQU5); assay: Inhibition of PAK6 (unknown origin) at 10 uM by Ambit Kinomescan binding assay
Chain of Serine/threonine-protein kinase PAK 6 (Homo sapiens) (Q9NQU5 whole entry, looked up): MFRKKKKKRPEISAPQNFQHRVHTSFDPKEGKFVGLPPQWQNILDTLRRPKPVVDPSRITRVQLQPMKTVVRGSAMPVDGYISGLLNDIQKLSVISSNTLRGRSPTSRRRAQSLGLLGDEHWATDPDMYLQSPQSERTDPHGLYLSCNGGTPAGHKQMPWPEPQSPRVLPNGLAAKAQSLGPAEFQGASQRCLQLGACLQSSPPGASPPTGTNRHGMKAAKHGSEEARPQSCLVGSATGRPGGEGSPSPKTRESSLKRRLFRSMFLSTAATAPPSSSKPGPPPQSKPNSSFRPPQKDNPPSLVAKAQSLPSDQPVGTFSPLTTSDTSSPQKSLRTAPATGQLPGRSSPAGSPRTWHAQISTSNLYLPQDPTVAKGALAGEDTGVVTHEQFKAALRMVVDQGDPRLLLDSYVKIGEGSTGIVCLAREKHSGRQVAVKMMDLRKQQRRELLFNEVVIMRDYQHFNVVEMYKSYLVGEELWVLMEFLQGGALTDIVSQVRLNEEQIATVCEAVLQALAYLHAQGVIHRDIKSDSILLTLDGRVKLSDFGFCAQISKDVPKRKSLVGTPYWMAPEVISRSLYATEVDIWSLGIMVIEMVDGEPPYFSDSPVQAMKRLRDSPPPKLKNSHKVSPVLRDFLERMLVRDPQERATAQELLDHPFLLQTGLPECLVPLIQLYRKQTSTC

[3] = molecular target: T2, Serine/threonine-protein kinase greatwall (Homo sapiens) (UniProt Q96GX5); assay: Inhibition of MASTL K2 labeling site in human Huh-7 cells at 1 uM by KiNativ Profiling analysis relative to control; format: cell-based
T2 sequence (whole entry): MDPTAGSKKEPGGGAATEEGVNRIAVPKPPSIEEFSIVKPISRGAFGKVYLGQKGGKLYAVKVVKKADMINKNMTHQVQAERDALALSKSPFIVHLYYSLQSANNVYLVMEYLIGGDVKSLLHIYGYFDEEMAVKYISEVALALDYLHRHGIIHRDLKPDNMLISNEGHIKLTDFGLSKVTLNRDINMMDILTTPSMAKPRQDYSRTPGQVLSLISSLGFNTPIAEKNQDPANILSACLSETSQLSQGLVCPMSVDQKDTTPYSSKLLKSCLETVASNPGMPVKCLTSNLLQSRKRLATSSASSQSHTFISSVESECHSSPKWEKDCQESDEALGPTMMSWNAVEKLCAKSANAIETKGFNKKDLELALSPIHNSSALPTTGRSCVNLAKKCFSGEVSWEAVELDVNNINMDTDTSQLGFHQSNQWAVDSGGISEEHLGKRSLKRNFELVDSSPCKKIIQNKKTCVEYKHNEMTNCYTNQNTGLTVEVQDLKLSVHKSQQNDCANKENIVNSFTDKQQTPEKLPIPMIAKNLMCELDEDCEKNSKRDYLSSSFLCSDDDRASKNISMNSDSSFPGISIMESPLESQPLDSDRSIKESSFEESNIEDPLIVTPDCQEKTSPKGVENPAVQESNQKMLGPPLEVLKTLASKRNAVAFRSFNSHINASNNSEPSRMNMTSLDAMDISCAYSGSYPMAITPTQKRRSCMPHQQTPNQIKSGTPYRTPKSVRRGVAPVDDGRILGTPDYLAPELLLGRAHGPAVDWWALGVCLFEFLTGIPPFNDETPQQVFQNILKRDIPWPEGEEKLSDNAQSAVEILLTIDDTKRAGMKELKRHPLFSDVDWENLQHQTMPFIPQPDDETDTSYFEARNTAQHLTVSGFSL

[4] = molecular target: T3, Serine/threonine-protein kinase Chk1 (Homo sapiens) (UniProt O14757); assay: Inhibition of CHK1 Lys2 labeling site harbouring DIKPENLLLDERDNLK in human A-375 cells at 5 uM by KiNativ Profiling analysis relative to control; format: cell-based
T3 sequence (whole entry): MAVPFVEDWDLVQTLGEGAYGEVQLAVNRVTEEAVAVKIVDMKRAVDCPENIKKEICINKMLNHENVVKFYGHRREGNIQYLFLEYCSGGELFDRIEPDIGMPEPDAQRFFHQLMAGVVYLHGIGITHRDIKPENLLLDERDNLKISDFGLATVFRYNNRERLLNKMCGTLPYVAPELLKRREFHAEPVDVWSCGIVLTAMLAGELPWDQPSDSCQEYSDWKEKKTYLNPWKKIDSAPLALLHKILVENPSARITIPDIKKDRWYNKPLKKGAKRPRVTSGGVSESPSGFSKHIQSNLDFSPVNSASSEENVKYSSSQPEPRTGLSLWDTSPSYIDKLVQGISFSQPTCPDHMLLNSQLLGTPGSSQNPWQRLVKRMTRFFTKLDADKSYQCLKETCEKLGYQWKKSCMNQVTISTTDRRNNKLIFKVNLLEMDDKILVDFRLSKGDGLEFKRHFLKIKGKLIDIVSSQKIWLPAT

[5] = molecular target: Tyrosine-protein kinase JAK3 (Homo sapiens) (UniProt P52333); assay: Inhibition of JAK3 JH1catalytic domain (unknown origin) at 10 uM by Ambit Kinomescan binding assay relative to control; values are per cent of control
Chain of Tyrosine-protein kinase JAK3 (Homo sapiens) (P52333 whole entry, the tested form may be a part): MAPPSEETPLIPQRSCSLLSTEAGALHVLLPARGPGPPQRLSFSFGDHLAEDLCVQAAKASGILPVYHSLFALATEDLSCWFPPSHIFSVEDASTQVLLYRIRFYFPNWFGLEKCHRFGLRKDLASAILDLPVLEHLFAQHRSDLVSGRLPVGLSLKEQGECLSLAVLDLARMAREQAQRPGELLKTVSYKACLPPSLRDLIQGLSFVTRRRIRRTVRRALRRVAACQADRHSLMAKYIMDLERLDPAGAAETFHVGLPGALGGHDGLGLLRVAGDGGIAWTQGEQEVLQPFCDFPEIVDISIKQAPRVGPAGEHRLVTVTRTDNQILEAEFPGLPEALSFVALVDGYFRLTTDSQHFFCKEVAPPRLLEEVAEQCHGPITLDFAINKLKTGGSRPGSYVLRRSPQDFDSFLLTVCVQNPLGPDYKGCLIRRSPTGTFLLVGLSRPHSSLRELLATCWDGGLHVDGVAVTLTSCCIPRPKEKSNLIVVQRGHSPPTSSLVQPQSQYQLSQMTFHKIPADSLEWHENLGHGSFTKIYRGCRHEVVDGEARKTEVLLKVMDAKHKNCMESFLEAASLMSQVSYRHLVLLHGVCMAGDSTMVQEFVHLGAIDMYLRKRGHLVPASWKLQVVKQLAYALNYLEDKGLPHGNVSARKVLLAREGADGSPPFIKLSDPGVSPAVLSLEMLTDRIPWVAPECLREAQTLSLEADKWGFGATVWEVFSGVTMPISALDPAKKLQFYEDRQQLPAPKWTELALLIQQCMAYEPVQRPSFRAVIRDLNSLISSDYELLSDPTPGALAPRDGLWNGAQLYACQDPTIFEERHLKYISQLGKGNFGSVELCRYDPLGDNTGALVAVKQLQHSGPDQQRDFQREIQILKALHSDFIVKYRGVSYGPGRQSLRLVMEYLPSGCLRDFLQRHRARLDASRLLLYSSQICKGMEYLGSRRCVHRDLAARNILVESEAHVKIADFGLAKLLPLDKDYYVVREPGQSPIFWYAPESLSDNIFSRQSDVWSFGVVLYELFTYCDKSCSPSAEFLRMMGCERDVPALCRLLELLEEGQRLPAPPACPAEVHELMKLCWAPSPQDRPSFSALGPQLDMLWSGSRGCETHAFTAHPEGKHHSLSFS

[6] = molecular target: Mitogen-activated protein kinase 14 (Homo sapiens, UniProt Q16539); assay: Inhibition of p38alpha K2 labeling site in human Huh-7 cells at 1 uM by KiNativ Profiling analysis relative to control; format: cell-based
Chain of Mitogen-activated protein kinase 14 (Q16539 whole entry): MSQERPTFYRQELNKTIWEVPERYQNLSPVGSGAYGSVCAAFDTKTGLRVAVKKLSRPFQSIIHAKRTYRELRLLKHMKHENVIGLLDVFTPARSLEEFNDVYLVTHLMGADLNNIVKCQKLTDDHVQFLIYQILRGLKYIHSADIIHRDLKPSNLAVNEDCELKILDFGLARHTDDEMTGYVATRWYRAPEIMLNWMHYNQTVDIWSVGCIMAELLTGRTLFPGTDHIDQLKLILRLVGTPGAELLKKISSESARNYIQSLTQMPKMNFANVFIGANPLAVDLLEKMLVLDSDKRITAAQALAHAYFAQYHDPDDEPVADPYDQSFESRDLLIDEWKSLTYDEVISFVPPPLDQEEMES

[7] = molecular target: Serine/threonine-protein kinase Chk2 (Homo sapiens) (UniProt O96017); assay: Inhibition of CHEK2 (unknown origin) at 10 uM by Ambit Kinomescan binding assay
Chain of Serine/threonine-protein kinase Chk2 (Homo sapiens) (O96017 whole entry): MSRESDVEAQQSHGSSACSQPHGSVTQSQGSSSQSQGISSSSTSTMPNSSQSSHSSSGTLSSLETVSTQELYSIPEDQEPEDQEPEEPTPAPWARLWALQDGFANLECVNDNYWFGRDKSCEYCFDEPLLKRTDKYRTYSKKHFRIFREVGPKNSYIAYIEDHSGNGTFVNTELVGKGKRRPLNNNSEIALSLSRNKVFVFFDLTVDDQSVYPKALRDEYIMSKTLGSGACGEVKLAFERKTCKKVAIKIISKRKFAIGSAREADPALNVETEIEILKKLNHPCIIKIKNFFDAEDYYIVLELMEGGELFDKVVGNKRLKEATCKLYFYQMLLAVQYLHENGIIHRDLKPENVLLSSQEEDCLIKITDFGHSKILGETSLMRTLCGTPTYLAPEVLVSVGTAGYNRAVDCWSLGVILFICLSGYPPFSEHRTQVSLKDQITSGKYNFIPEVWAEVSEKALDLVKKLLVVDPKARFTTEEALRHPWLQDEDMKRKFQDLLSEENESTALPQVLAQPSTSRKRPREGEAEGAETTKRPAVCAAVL

[8] = molecular target: T1, Inhibitor of nuclear factor kappa-B kinase subunit epsilon (Homo sapiens); assay: Inhibition of IKKe K2 labeling site in human Huh-7 cells at 1 uM by KiNativ Profiling analysis relative to control; format: cell-based
[9] = molecular target: Cyclin-dependent kinase 7 (Homo sapiens) (UniProt P50613); assay: Inhibition of CDK7 Lys2 labeling site in human A-375 cells at 0.5 uM by KiNativ Profiling analysis relative to control; format: cell-based
Chain of Cyclin-dependent kinase 7 (Homo sapiens) (P50613 whole entry): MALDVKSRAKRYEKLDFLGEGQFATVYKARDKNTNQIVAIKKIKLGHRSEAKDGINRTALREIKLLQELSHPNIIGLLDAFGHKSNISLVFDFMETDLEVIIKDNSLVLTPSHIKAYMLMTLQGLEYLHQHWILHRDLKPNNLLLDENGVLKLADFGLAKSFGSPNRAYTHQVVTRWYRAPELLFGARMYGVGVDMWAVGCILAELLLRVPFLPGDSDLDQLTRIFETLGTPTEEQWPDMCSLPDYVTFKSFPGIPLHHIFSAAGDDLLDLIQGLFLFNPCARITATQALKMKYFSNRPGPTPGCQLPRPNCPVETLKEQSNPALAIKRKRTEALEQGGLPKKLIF

[10] = molecular target: Mitogen-activated protein kinase kinase kinase 12 (Homo sapiens) (UniProt Q12852); assay: Inhibition of DLK Lys2 labeling site harbouring in human A-375 cells at 0.5 uM by KiNativ Profiling analysis relative to control
Chain of Mitogen-activated protein kinase kinase kinase 12 (Homo sapiens) (Q12852 whole entry, looked up): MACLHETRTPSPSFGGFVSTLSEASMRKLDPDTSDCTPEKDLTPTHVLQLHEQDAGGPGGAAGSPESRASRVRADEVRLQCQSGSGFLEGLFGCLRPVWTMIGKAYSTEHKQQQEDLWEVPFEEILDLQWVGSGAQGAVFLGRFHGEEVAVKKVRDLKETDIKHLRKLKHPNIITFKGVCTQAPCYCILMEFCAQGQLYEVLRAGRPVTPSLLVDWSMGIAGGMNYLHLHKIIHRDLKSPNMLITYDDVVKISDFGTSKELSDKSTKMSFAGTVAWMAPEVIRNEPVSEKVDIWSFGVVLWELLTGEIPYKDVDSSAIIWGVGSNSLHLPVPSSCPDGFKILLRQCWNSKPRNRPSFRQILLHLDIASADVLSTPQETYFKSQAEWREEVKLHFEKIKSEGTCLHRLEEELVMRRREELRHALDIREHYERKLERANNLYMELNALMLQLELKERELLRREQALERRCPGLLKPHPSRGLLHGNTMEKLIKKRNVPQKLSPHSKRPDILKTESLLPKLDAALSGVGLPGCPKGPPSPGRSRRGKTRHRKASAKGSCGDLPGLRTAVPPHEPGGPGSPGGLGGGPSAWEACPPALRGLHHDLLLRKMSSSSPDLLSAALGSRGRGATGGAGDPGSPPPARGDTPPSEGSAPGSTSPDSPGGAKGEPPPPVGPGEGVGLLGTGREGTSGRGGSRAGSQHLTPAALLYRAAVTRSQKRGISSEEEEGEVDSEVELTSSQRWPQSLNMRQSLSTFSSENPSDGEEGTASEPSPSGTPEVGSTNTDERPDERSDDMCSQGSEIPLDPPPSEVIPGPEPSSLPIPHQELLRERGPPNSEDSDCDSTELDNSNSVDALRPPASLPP

[11] = molecular target: Serine/threonine-protein kinase 4 (Homo sapiens) (UniProt Q13043); assay: Inhibition of MST1 Lys1 labeling site harbouring AIHKETGQIVAIKQVPVESDLQEIIK in human A-375 cells at 0.05 uM by KiNativ Profiling analysis relative to control
Chain of Serine/threonine-protein kinase 4 (Homo sapiens) (Q13043 whole entry, looked up): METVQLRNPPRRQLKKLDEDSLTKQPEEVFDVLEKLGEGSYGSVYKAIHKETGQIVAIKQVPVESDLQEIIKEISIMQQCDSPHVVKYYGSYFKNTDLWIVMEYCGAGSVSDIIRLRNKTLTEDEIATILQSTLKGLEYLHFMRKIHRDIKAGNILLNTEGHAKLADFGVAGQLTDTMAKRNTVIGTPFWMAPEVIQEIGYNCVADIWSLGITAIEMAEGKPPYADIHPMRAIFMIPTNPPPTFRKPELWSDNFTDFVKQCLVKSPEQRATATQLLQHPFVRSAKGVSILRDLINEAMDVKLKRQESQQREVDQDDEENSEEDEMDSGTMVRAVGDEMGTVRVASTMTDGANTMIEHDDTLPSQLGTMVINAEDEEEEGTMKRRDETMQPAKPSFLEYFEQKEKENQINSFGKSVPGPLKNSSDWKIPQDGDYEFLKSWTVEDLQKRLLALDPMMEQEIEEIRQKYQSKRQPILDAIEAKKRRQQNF

`CNc1cc(Oc2cc(C(=O)Nc3cc(N4CCN(C)CC4)cc(C(F)(F)F)c3)ccc2C)ncn1` showed an inhibition [1] of -5.8%.

`CCN1CCN(Cc2ccc(NC(=O)c3ccc(C)c(Oc4ccnc5[nH]ccc45)c3)cc2C(F)(F)F)CC1` was tested, and the inhibition [2] was “inactive”, the inhibition [3] was -2.1% and the inhibition [4] was 32.3%. The percent of control [5] was 2.4%, the inhibition [6] was 7.1% and the inhibition [7] was “inactive”. The inhibition [8] was 17.7%.

`CCN1CCN(Cc2ccc(NC(=O)c3ccc(C)c(/C=C/c4cnc5[nH]ccc5c4OC)c3)cc2C(F)(F)F)CC1` gave an inhibition [9] of 36.2%, an inhibition [10] of 0.8% and an inhibition [11] of 0.6%.
